Measurements published in patent US6274333A (Sanofi-Synthelabo, priority 1997, dated 2001).
Like-named read-outs stand apart in the source and are kept apart here.

Columns and labels:
cloned receptor = conditions: cited from earlier work
analgesia induced by NT [1] = conditions: mice; cited from earlier work
rNT-R2 receptor [2] = molecular target: T1, rNT-R2 receptor (Rattus norvegicus, UniProt Q63384); test: displacement of ^125 I-neurotensin from rNT-R2 expressed in COS cells; type: binding
T1 construct: rNT-R2 receptor expressed in COS-3 cells after transfection of the cloned cDNA; expressed in transfected cells; vector pSVL-rNT-R2
T1 sequence (Q63384 1-416): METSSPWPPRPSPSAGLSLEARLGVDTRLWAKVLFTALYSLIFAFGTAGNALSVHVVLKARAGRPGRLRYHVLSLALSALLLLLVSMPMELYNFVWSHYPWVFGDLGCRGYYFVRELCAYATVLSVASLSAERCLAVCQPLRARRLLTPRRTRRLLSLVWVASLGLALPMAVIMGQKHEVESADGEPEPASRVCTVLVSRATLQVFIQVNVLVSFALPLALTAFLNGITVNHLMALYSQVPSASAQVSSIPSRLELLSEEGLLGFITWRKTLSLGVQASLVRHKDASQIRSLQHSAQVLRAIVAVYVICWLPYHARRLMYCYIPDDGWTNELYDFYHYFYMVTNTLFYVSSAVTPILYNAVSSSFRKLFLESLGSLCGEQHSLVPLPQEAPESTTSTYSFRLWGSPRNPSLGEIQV
Description: BSA (bovine serum albumin), PMSF (phenylmethylsulphonyl fluoride) and 1,10-phenanthroline are marketed by Sigma. […] Levocabastine was obtained from Janssen Pharmaceutica.
(§1) The pharmacological characterization was carried out using […] cells transfected with pSVL-rNT-R2 recombinant vector. Three days after transfection, the cell monolayers were washed twice with 50 mM Tris-HCl pH 7.5, 0.1% BSA, 0.1% NaN3, 1 mM 1,10-phenanthroline (binding buffer) before binding to the radioligand.
After incubation for one hour at room temperature, the medium was aspirated and the cell monolayers were washed twice with the incubation buffer. Finally, the cells were solubilized with 1 ml of 1N NaOH and the bound radioactivity was evaluated.

[3] = tested on: hypothermia induced by NT; conditions: mice; cited from earlier work
hNT-R2 [4] = molecular target: T2, hNT-R2 (Homo sapiens, UniProt O95665); test: microphysiometry (Cytosensor) with CHO 2076.62 (hNT-R2) cells; type: cell-based
T2 sequence (O95665 whole entry A54V, the tested form may be a part): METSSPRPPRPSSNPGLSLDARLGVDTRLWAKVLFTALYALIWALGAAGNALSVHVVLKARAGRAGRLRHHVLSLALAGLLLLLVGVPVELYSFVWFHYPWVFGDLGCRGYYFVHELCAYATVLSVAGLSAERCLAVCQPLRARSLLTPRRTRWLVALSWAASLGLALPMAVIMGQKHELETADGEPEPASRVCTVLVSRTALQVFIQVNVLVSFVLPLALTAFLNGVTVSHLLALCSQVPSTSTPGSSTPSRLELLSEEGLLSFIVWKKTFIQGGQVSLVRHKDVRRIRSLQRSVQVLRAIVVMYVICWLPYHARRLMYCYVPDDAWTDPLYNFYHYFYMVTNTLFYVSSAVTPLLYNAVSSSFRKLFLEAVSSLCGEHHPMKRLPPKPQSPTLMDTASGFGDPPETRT
Description: The microphysiometry experiments were carried out with the Cytosensor Microphysiometer (Molecular Devices, Menlo Park, Calif.). Each chamber of the instrument containing 3×10^5 cells was perfused with DMEM medium (Sigma, St. Louis, Mo.) containing 40 mM NaCl at 37° C. The rate of acidification was measured every 60 seconds (flowrate […]). 15-second injections of agonists were carried out. For the inhibition experiments, cells were exposed to the antagonists for 30 minutes before being perfused with the agonist.

[5] = tested on: hypothermia induced by NT; conditions: rats; cited from earlier work
hNT-R2 [6] = molecular target: T2, hNT-R2; test: intracellular Ca^2+ concentration in CHO-2076.62 (hNT-R2) line; type: cell-based; conditions: same response in the absence of extracellular calcium
Source text: In principle, this increase in the concentration of intracellular calcium ions is due to the release of internal reservoirs and not to the influx of extracellular calcium since the same response was found in the absence of extracellular calcium.

analgesia induced by NT [7] = conditions: rats; cited from earlier work
type-1 receptor = conditions: cited from earlier work
HT29 cells = conditions: antagonism of neurotensin effect in vitro, read-out: IC50, formation of IP1 in HT29 cells; cited from earlier work
[8] = tested on: release of acetylcholine in rat striatum; conditions: cited from earlier work
rotation in mice = conditions: cited from earlier work
NT-1R = conditions: CHO cells transfected with NT-1R; cited from earlier work
hNT-R2 [9] = molecular target: T2, hNT-R2; test: inositol phosphate (IP3) production in CHO-2076.62 (hNT-R2) line; type: cell-based
Source text: The CHO-2076.62 (hNT-R2) line was used to study the signalization mechanisms involved.

[10] = tested on: untransfected cells, or cells transfected with the DNA vector alone; test: binding of radiolabelled neurotensin to untransfected or vector-transfected COS cells
rNT-R2 receptor [11] = molecular target: T1, rNT-R2 receptor; test: saturation binding of ^125 I-neurotensin to rNT-R2 expressed in COS cells; conditions: Scatchard analysis
Description: BSA (bovine serum albumin), PMSF (phenylmethylsulphonyl fluoride) and 1,10-phenanthroline are marketed by Sigma. The selective, non-peptide antagonist SR 48692 was synthesized by Sanofi Recherche, France. Levocabastine was obtained from Janssen Pharmaceutica.
as §1
Saturation experiments were carried out in 1 ml of binding buffer containing ^125 I-neurotensin over a range from 0.05 to 14.5 nM. After incubation for one hour at room temperature, the medium was aspirated and the cell monolayers were washed twice with the incubation buffer. Finally, the cells were solubilized with 1 ml of 1N NaOH and the bound radioactivity was evaluated. The non-specific binding was defined as being the binding in the presence of a (500-fold) excess of unlabelled ligand and, under these conditions, was less than 1% of the total radioactivity.

[12] = 0.2 nM ^125 I-neurotensin, rNT-R2 in COS cells, read-out: IC50 (apparent), competition with ^125 I-neurotensin
[13] = binding with the type-1 receptor

COc1cccc(OC)c1-c1cc(C(=O)NC2(C(=O)O)C3CC4CC(C3)CC2C4)nn1-c1ccnc2cc(Cl)ccc12 (centres unmarked) [SR 48692, {2-[(1-(7-chloro-4-quinolinyl)-5-(2,6-di-methoxyphenyl)pyrazol-3-yl)carbonylamino]tricyclo-(3.3.1.1.3.7)decane-2-carboxylic} acid]
inhibition of the binding of NT to the cloned receptor (cloned receptor): inhibits the binding of NT to the cloned receptor
effect on analgesia induced by NT (analgesia induced by NT [1]): insensitive
IC50 (rNT-R2 receptor [2]; [12]): 22.5 nM
effect on hypothermia induced by NT [3]: insensitive
inhibition of the agonist effect of SR142948 (hNT-R2 [4]; CHO 2076.62 (hNT-R2), SR48692 at doses at which there is no agonist effect): antagonized
relative effectiveness at inhibiting the effect of SR142948 (hNT-R2 [4]; inhibition curves, SR48692 versus neurotensin): more effective than neurotensin
effect on hypothermia induced by NT [5]: insensitive
intracellular concentration of Ca^2+ response (hNT-R2 [6]): significant response
effect on analgesia induced by NT (analgesia induced by NT [7]): insensitive

neuromedin N: ligand related to neurotensin, used as competitor (IPYIL; Neuromedin N; UniProt P30990 144-148, looked up)
IC50 (rNT-R2 receptor [2]; [12]): 5.1 nM

COc1cccc(OC)c1-c1cc(C(=O)NC2(C(=O)O)C3CC4CC(C3)CC2C4)nn1-c1ccc(C(=O)N(C)CCCN(C)C)cc1C(C)C.Cl (centres unmarked) [SR 142948 A, 2-{(5-(2,6-dimethoxyphenyl)-1-(4-(N-(3-dimethylamino-propyl)-N-methylcarbamoyl)-2-isopropylphenyl)-1H-pyrazole-3-carbonyl)amino}adamantane-2-carboxylic acid hydrochloride]
displacement of [^3 H]-SR 48692 (type-1 receptor; [13]): completely displaces
displacement of [^125 I]-neurotensin (type-1 receptor; [13]): completely displaces
affinity (type-1 receptor; type-1 receptor (Gully et al.)): of the order of a nanomole
IC50 (HT29 cells): 3.9 nM
effect on analgesia induced by NT (analgesia induced by NT [1]): antagonizes
antagonism of neurotensin effect: release of acetylcholine [8]: antagonizes
effect on hypothermia induced by NT [3]: antagonizes
antagonism of neurotensin effect: rotation (rotation in mice): antagonizes
antagonism of neurotensin mobilization of intracellular calcium ions (NT-1R): antagonizes
effect on hypothermia induced by NT [5]: antagonizes
effect on analgesia induced by NT (analgesia induced by NT [7]): antagonizes

COc1cccc(OC)c1-c1cc(C(=O)NC2(C(=O)O)C3CC4CC(C3)CC2C4)nn1-c1ccc(C(=O)N(C)CCCN(C)C)cc1C(C)C (centres unmarked) [SR142948]
increase in IP3 (hNT-R2 [9]): slight and transient (20-second) increase
intracellular concentration of Ca^2+ response (hNT-R2 [6]): significant response

C[C@@H]1CN([C@H]2CC[C@](C#N)(c3ccc(F)cc3)CC2)CC[C@]1(C(=O)O)c1ccccc1 [levocabastine]
IC50 (rNT-R2 receptor [2]): 10 nM

^125 I-neurotensin: ^125 I-[Tyr^3 ]-labelled neurotensin marketed by NEN
binding to untransfected cells or cells transfected with vector alone [10]: did not bind
binding capacity (Bmax) (rNT-R2 receptor [11]): 180,000±3000 sites per cell
